# Laboratory results reported in patent publication US20210353648A1, “GRAPIPRANT UNIT DOSAGE FORMS” (Arrys Therapeutics, Inc., priority 2018, published 2021).
# Read-outs that look alike come from different tables or passages of the source.
# Experiments:
# [1] = Phase 1 crossover food effect study of 375 mg grapiprant tablets: pharmacokinetics; format: in vivo, human; conditions: for AUC(0-inf) / Cmax / AUC(0-t) / half-life / Tmax: human, serum, po, 375 mg, single oral dose, healthy subjects (N = 12); for AUC(0-inf) / Cmax / AUC(0-t) / half-life: arithmetic mean; for AUC(0-t): read-out: AUC(0-tlast); for half-life: read-out: t½ (converted); for Tmax: median
# Experimental: This study was a randomized, open-label, single dose, 2-period crossover design. Each subject participated in 2 study periods. In each study period, subjects received a dose of 375 mg administered as 3×125 mg tablets of grapiprant under fasted or fed conditions in a crossover manner according to a randomized dosing sequence. The fed condition consisted of a standardized high-fat meal. Following an initial screening period of no longer than 28 days, 12 eligible subjects were to be randomized to the 2 treatment sequences and 2 treatment period sessions as shown in Table 6-1.
# In each study period, subjects received 375 mg grapiprant (as 3×125 mg tablets) under either fed or fasted conditions. Each subject received 2 single doses: Day 1 and Day 8.
# Blood samples were collected at the following times: 0 (just prior to dosing), 0.5, 1, 1.5, 2, 2.5, 3, 4, 6, 8, 12, 16, 24 and 48 hours following each dosing. The primary pharmacokinetic endpoints of the study were AUC(0-tlast) (area under the serum concentration-time curve from time 0 to the time of the last quantifiable concentration), AUC(0-inf) (AUC from time 0 to infinite time), and Cmax (maximum observed serum concentration) of serum grapiprant. The secondary pharmacokinetic endpoints of the study were Tmax (the time to Cmax) and t½ (terminal elimination half-life), as the data permitted.
# Log-transformed AUC(0-inf), AUC(0-tlast) and Cmax were each analyzed using a mixed effects model containing sequence, treatment (fed and fasted), and period as the fixed effects and subject (within sequence) as the random effect. The SAS procedure PROC MIXED was used for the analysis. Compound symmetry was assumed, and Restricted Maximum Likelihood Estimates (REML) were utilized.
# For AUC(0-inf), AUC(0-tlast) and Cmax, on the natural log scale, estimates of the adjusted mean difference between grapiprant tablet under fed condition (test) and grapiprant under fasted condition (reference) and their corresponding 90% confidence intervals were calculated.
# The anti-logs (exponent) of the difference and confidence interval were taken to estimate the mean ratio (relative bioavailability) and its corresponding 90% confidence interval. Vital signs, adverse events, ECG parameters, and safety laboratory values were summarized with descriptive statistics.
# [2] = Phase 1 single ascending dose study of grapiprant OPC: safety and tolerability; format: in vivo
# Experimental: Eligible subjects were to be enrolled into 8 sequential cohorts, corresponding to the planned dose levels of 1 mg, 3 mg, 10 mg, 30 mg, 100 mg, 300 mg, 600 mg, and 1000 mg. […] After determining a maximum tolerated dose (MTD), or after completing the highest dose cohort if a MTD was not determined, Cohort 11 would be enrolled to increase the number of subjects evaluated at the MTD (or the highest dose).
# In each dosing period, subjects were confined to the Clinical Research Unit (CRU) for approximately 60 hours (from approximately 36 hours predose through 24 hours postdose), and were instructed to return to the study site at 48 hours postdose for collection of blood samples for safety and pharmacokinetic evaluations. Subjects had triplicate ECG measurements made at select time-points on Day 0 (to provide a time-matched baseline) and through 24 hours postdose. Continuous cardiac monitoring by telemetry was performed for 12 hours postdose (or up to 24 hours, if warranted, based on the pharmacokinetic data). Creatine phosphokinase (CPK; total CPK and CPK-MB isoenzyme) and troponin I levels were monitored predose and at 12 and 24 hours postdose. In each dosing period, blood samples were collected predose and at 0.5, 1, 1.5, 2, 2.5, 3, 4, 6, 8, 12, 16, 24, and 48 hours postdose for pharmacokinetic evaluation. Fecal occult blood was monitored predose and through 48 hours postdose. Urine was collected through 24 hours postdose for exploratory biotransformation analyses. Since grapiprant may be a substrate of efflux transporters, genotyping for P-gp, an efflux transporter, was also planned for this study.
# Safety: All subjects were evaluated for safety. Subjects were queried regarding adverse events (AEs) at 24 hours prior to dosing, 0 hours predose (baseline), and 1, 2, 4, 8, and 12 hours postdose. A limited physical examination, clinical laboratory tests, and fecal occult blood test were performed 24 hours prior to dosing. Vital signs measurements and 12-lead ECGs were performed in triplicate (approximately 2 minutes apart) at specified intervals in the 24 hours before dosing, 0 hours (predose), and at 0.5, 1, 1.5, 2, 3, 4, 8, and 12 hours postdose. Continuous cardiac telemetry monitoring was started at 1 hour postdose and continued for 12 hours postdose Fecal occult blood was monitored for 48 hours postdose.
# [3] = 375 mg tablets, adjusted geometric means, N = 12
# [4] = 375 mg tablets, standard high-fat meal compared to fasted
# [5] = 375 mg tablet-fed (high-fat meal)
smiles,measurement,setting,value
"CCc1nc2c(C)nc(C)cc2n1-c1ccc(CCNC(=O)NS(=O)(=O)c2ccc(C)cc2)cc1 [Grapiprant, N-((4-(2-ethyl-4,6-dimethyl-1H-imidazo[4,5-c]pyridin-1-yl)phenethyl)carbamoyl)-4-methylbenzenesulfonamide]",Geometric Mean Ratio (fed/fasted) of AUC(0-inf),[1]; [3],87.48%
same,Geometric Mean Ratio (fed/fasted) of AUC(0-tlast),[1]; [3],87.42%
same,Geometric Mean Ratio (fed/fasted) of Cmax,[1]; [3],64.16%
same,decrease in AUC,[1]; [4],13%
same,decrease in Cmax,[1]; [4],36%
same,AUC(0-inf),[1]; 375 mg tablet-fasted,29100 ng·h/mL
same,Cmax,[1]; 375 mg tablet-fasted,8990 ng/mL
same,AUC(0-t),[1]; 375 mg tablet-fasted,28900 ng·h/mL
same,half-life,[1]; 375 mg tablet-fasted,9.48 h
same,Tmax,[1]; 375 mg tablet-fasted,1 h
same,AUC(0-inf),[1]; [5],24800 ng·h/mL
same,Cmax,[1]; [5],5840 ng/mL
same,AUC(0-t),[1]; [5],24600 ng·h/mL
same,half-life,[1]; [5],8.52 h
same,Tmax,[1]; [5],4 h
same,subjects reporting abdominal pain,[2]; 30 mg,1 subject
same,SAEs,"[2]; 1 subject at 600 mg (not related), 1 each at 1500 mg and 2000 mg",Three subjects experienced SAEs
same,subjects reporting abdominal pain,[2]; 1500 mg,2 subjects
same,incidence of AEs,[2]; 1500 mg treatment group,4 of 6 subjects
same,subjects reporting abdominal pain,[2]; 2000 mg,4 subjects
same,incidence of AEs,[2]; 2000 mg treatment group,5 of 6 subjects
same,serum creatinine and BUN (COSTART term: acute renal failure),"[2]; 2 subjects, 1 each at 1500 mg and 2000 mg","mild, treatment-related elevations in serum creatinine and BUN"
same,subjects experiencing AEs,"[2]; 26 of the 61 subjects treated, single doses 1 mg to 2000 mg",43%
same,deaths or discontinuations due to AEs,[2]; all dose levels,No deaths or discontinuations due to AEs
same,fecal occult blood,[2]; all dose levels,No positive results for fecal occult blood tests
same,"vital signs measurements, cardiac telemetry, ECG parameters",[2]; all dose levels,"No clinically important, study drug-related changes"
same,subjects with treatment-related abdominal pain,[2]; among the 12 subjects who received 1500 or 2000 mg,6 subjects
same,tolerability,[2]; single doses ranging from 1 mg to 1000 mg,generally well tolerated
